Structures are written as SMILES. Where two headings read alike, the source gives them in different places.

Consider 20 molecules from patent US8791132B2, “Compounds and methods for treatment of hypertension” (Medivation Technologies, Inc., priority 2011, dated 2014).

The target in test [1] is T1, human recombinant adrenergic α2B receptor (Homo sapiens, UniProt P18089).
T1 construct: expressed in transfected cells; host or cells: CHO-K1
T1 sequence (P18089 1-450): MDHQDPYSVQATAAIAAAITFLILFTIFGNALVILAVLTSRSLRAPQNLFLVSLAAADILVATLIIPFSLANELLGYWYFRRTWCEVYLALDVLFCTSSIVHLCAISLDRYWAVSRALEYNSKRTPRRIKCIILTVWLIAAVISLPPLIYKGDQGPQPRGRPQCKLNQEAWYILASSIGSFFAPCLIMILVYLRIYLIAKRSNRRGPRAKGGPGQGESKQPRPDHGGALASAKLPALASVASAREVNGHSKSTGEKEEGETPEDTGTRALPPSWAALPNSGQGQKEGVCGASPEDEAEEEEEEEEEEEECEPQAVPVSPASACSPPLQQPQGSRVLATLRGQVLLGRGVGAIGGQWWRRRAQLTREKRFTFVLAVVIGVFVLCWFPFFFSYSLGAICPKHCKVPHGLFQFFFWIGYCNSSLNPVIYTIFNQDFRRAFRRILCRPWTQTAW
Kind of test: Radioligand binding, adrenergic α2B ([3H]Rauwolscine). The following applies: for Percentage inhibition of ligand binding, Adrenergic α2B: 0.03 µM. The gist of the method: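 Values are percent inhibition of specific radioligand binding. The receptor, expressed in CHO-K1 cells, was exposed to 2.5 nM [3H]Rauwolscine at 25° C for 60 min, with 10 μM Prazosin marking non-specific binding.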

Test [2] addresses T2, rat adrenergic α1B receptor (Rattus norvegicus, UniProt P15823).
T2 construct: rat adrenergic α1B receptor obtained from Wistar Rat liver; from tissue; host or cells: Wistar rat liver
T2 sequence (P15823 1-515): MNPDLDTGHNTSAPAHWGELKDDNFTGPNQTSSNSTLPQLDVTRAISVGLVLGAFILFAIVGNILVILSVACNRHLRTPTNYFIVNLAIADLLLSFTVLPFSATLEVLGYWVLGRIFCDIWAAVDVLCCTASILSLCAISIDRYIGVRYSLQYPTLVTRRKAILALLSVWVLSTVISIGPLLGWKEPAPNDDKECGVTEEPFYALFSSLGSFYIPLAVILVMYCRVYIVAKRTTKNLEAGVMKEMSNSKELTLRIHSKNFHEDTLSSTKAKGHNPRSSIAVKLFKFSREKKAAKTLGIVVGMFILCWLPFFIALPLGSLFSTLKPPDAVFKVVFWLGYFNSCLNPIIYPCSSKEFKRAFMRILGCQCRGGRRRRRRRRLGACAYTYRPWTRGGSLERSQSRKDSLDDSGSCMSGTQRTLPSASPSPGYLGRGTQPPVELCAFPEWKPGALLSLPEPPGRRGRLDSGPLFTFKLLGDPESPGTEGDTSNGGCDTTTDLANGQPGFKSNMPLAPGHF
Kind of test: Radioligand binding, adrenergic α1B ([3H]Prazosin). The following applies: for Percentage inhibition of ligand binding, Adrenergic α1B: 0.1 µM. In short, it runs like this:
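Rat α1B receptor from Wistar rat liver was incubated with 0.25 nM [3H]prazosin for 60 min at 25 °C in 50 mM Tris-HCl, pH 7.4, 0.5 mM EDTA. Non-specific binding was defined with 10 μM phentolamine. Bound radioligand was measured by filtration and counting, reported as percent inhibition of specific binding.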

In test [3] the target is T3, human recombinant adrenergic α2A receptor (Homo sapiens, UniProt P08913).
T3 construct: expressed in transfected cells; host or cells: insect Sf9 cells
T3 sequence (P08913 1-465): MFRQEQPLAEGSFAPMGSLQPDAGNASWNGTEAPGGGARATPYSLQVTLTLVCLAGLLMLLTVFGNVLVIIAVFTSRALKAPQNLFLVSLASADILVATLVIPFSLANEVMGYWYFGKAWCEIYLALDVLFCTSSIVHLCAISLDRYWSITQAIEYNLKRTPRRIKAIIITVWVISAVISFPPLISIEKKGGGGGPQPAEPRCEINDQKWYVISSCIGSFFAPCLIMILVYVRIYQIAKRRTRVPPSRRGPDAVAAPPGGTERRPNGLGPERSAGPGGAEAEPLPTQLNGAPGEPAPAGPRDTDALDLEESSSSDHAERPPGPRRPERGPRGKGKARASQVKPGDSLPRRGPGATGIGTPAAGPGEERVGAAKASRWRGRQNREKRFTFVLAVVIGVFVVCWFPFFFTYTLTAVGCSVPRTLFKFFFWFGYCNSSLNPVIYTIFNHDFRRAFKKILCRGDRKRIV
Kind of test: Radioligand binding, adrenergic α2A ([3H]MK-912). The following applies: for Percentage inhibition of ligand binding, Adrenergic α2A: 0.1 µM. The gist of the method: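 Receptor expressed in Sf9 cells, in 50 mM Tris-HCl pH 7.4, 12.5 mM MgCl2, 2 mM EDTA; compounds incubated with 1 nM [3H]MK-912 for 60 min at 25 °C.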

Where [4] appears, read: read-out: Percentage inhibition of ligand binding, Adrenergic α2B (0.03 μM), compound at 0.03 μM, [3H]Rauwolscine, repeat datapoints each shown.
The mark [5] stands for this setting: read-out: Percentage inhibition of ligand binding, Adrenergic α1B (0.1 μM), compound at 0.1 μM, [3H]Prazosin, repeat datapoints each shown.
Where [6] appears, read: read-out: Percentage inhibition of ligand binding, Adrenergic α2A (0.1 μM), compound at 0.1 μM, [3H]MK-912, repeat datapoints each shown.
[7] abbreviates: 0.03 μM compound, read-out: Percentage inhibition of ligand binding, Adrenergic α2B.
The mark [8] stands for this setting: 0.1 μM compound, read-out: Percentage inhibition of ligand binding, Adrenergic α1B.
[9] abbreviates: 0.1 μM compound, read-out: Percentage inhibition of ligand binding, Adrenergic α2A.

The term inhibition denotes the change of the read-out against control, counted positive when it falls. Regarding `Cc1ccc2c(c1)c1c(n2CC(O)c2ccc(C(N)=O)nc2)CCN(C)C1` (stereo not drawn) [144a, 5-[2-(2,8-dimethyl-1,2,3,4-tetrahydro-pyrido[4,3-b]indol-5-yl)-1-hydroxy-ethyl]-pyridine-2-carboxylic acid amide], the inhibition at 0.03 µM in test [1] (setting [4]) is 40%. Further, the inhibition at 0.1 µM in test [2] (setting [5]) came out at 57%; in test [3] (setting [6]), 1%.

In the case of `Cc1ccc(C(O)Cn2c3c(c4cc(C)ccc42)CN(C)CC3)cc1` (stereo not drawn) [183a, 2-(1,2,3,4-tetrahydro-2,8-dimethylpyrido[4,3-b]indol-5-yl)-1-p-tolylethanol], the inhibition at 0.03 µM in test [1] (setting [4]) amounted to 82%. Besides, the results for the inhibition at 0.1 µM in test [2] (setting [5]) and in test [3] (setting [6]) were 77% and 56%, respectively.

Turning to `C/C(=C\n1c2c(c3cc(C)ccc31)C1CCCN1CC2)c1ccc(F)cc1` (stereo not drawn) [194a, 7-(2-(4-fluorophenyl)prop-1-enyl)-10-methyl-2,3,5,6,7,11c-hexahydro-1H-indolizino[7,8-b]indole], the inhibition at 0.03 µM in test [1] (setting [4]) is 106%. Further, the inhibition at 0.1 µM came to 100% in test [2] (setting [5]) and 98% in test [3] (setting [6]).

With `Cc1ccc2c(c1)c1c(n2CCc2ccc(C)nc2)CCN2CCCC12` (stereo not drawn) [197a, 9-methyl-6-[2-(6-methyl-pyridin-3-yl)-ethyl]-2,3,4,5,6,10c-hexahydro-1H-3a, 6-diaza-cyclopenta[c]fluorene], the inhibition at 0.03 µM in test [1] (setting [4]) was determined as 81%. For the same molecule, the inhibition at 0.1 µM in test [2] (setting [5]) was determined as 82%; in test [3] (setting [6]) it was 31%.

`C/C(=C\n1c2c(c3cc(C)ccc31)CN(C)CC2)c1ccncc1` [II-2]: the inhibition at 0.03 µM in test [1] (setting [7]) worked out at 96%. Also, the inhibition at 0.1 µM in test [2] (setting [8]) amounted to 74%; in test [3] (setting [9]) it was 49%.

For the molecule `Cc1cc2c3c(n(CC(C)(O)c4cccnc4)c2cn1)CCN1CCCC31` (stereo not drawn) [II-5], the inhibition at 0.03 µM in test [1] (setting [7]) came out at 4%. The inhibition at 0.1 µM in test [2] (setting [8]) was found to be 2%; in test [3] (setting [9]), 9%.

On to `Cc1ccc2c(c1)c1c(n2CC(c2cnccn2)N(C)C)CCN2CCCC12` (stereo not drawn) [II-7, dimethyl-[2-(9-methyl-1,2,3,4,5,10c-hexahydro-3a,6-diaza-cyclopenta[c]fluoren-6-yl)-1-pyrazin-2-yl-ethyl]-amine], for which the inhibition at 0.03 µM in test [1] (setting [7]) was 100%. Moreover, the inhibition at 0.1 µM in test [2] (setting [8]) is 95%; in test [3] (setting [9]) it was 52%.

`CCNC(Cn1c2c(c3cc(C)ccc31)CN(C)CC2)c1ccncc1` (stereo not drawn) [II-8, [2-(2,8-dimethyl-1,2,3,4-tetrahydro-pyrido[4,3-b]indol-5-yl)-1-pyridin-4-yl-ethyl]-ethyl-amine]: the inhibition at 0.03 µM in test [1] (setting [7]) is 70%. The inhibition at 0.1 µM in test [2] (setting [8]) was 6%; in test [3] (setting [9]) it was 9%.

As to `Cc1ccc2c(c1)c1c(n2CC(NC2CCCC2)c2ccncc2)CCN(C)C1` (stereo not drawn) [II-9, cyclopentyl-[2-(2,8-dimethyl-1,2,3,4-tetrahydro-pyrido[4,3-b]indol-5-yl)-1-pyridin-4-yl-ethyl]-amine], the inhibition at 0.03 µM in test [1] (setting [7]) is 78%. Moreover, the values for the inhibition at 0.1 µM in test [2] (setting [8]) and in test [3] (setting [9]) were 30% and 7%, respectively.

With `Cc1ccc2c(c1)c1c(n2CC(NC(C)C)c2ccncc2)CCN(C)C1` (stereo not drawn) [II-10, [2-(2,8-dimethyl-1,2,3,4-tetrahydro-pyrido[4,3-b]indol-5-yl)-1-pyridin-4-yl-ethyl]-isopropyl-amine], in test [1] (setting [7]), the inhibition at 0.03 µM amounted to 47%. Further, the figures for the inhibition at 0.1 µM in test [2] (setting [8]) and in test [3] (setting [9]) were 7% and 10%, respectively.

For the molecule `Cc1ccc2c(c1)c1c(n2CC(N)c2ccc(F)cc2)CCN(C)C1` (stereo not drawn) [II-11, 2-(2,8-dimethyl-3,4-dihydro-1H-pyrido[4,3-b]indol-5(2H)-yl)-1-(4-fluorophenyl)ethanamine], the “Percentage inhibition of ligand binding, Adrenergic α2B” value in test [1] (0.03 μM compound) worked out at 70%. Also, in test [2] (0.1 μM compound), the “Percentage inhibition of ligand binding, Adrenergic α1B” value was determined as 63%. Further, the “Percentage inhibition of ligand binding, Adrenergic α2A” value in test [3] (0.1 μM compound) is 25%.

Consider `CNC(Cn1c2c(c3cc(C)ccc31)CN(C)CC2)c1ccc(F)cc1` (stereo not drawn) [II-12, 2-(2,8-dimethyl-3,4-dihydro-1H-pyrido[4,3-b]indol-5(2H)-yl)-1-(4-fluorophenyl)-N-methyl ethanamine], for which the “Percentage inhibition of ligand binding, Adrenergic α2B” value in test [1] (0.03 μM compound) was 65%. Further, the “Percentage inhibition of ligand binding, Adrenergic α1B” value in test [2] (0.1 μM compound) was 18%. The “Percentage inhibition of ligand binding, Adrenergic α2A” value in test [3] (0.1 μM compound) stood at 11%.

Take `Cc1ccc2c(c1)c1c(n2CC(NC2CCC2)c2ccncc2)CCN(C)C1` (stereo not drawn) [II-13, cyclobutyl-[2-(2,8-dimethyl-1,2,3,4-tetrahydro-pyrido[4,3-b]indol-5-yl)-1-pyridin-4-yl-ethyl]-amine]: the inhibition at 0.03 µM in test [1] (setting [7]) worked out at 73%. Also, the inhibition at 0.1 µM in test [2] (setting [8]) and in test [3] (setting [9]) was 9% throughout.

On to `Cc1ccc2c(c1)c1c(n2CC(C)(OC(=O)C(C)(C)C)c2cccnc2)CCN(C)C1` (stereo not drawn) [II-16a, 2,2-dimethyl-propionic acid 2-(2,8-dimethyl-1,2,3,4-tetrahydro-pyrido[4,3-b]indol-5-yl)-1-methyl-1-pyridin-3-yl-ethyl ester], for which the inhibition at 0.03 µM in test [1] (setting [7]) is 39%. Besides, the figures for the inhibition at 0.1 µM in test [2] (setting [8]) and in test [3] (setting [9]) were 20% and 11%, respectively.

On to `Cc1ccc2c(n1)c1c(n2CC(C)(O)c2cccnc2)CCN2CCCC12` (stereo not drawn) [II-17], for which, in test [1] (setting [7]), the inhibition at 0.03 µM came out at 7%. Moreover, the inhibition at 0.1 µM worked out at 8% in test [2] (setting [8]) and 4% in test [3] (setting [9]).

For `Cc1ccc2c(c1)c1c(n2CC(C)(OC(=O)c2ccncc2)c2cccnc2)CCN(C)C1` (stereo not drawn) [II-19], in test [1] (setting [7]), the inhibition at 0.03 µM was 21%. For the same molecule, the inhibition at 0.1 µM in test [2] (setting [8]) and in test [3] (setting [9]) was 8% throughout.

For `CN1CCc2c(c3cc(CO)ccc3n2CC(O)c2ccncc2)C1` (stereo not drawn) [II-60, 2-(8-hydroxymethyl-2-methyl-1,2,3,4-tetrahydro-pyrido[4,3-b]indol-5-yl)-1-pyridin-4-yl-ethanol], the inhibition at 0.03 µM in test [1] (setting [7]) was found to be 54%. The figures for the inhibition at 0.1 µM in test [2] (setting [8]) and in test [3] (setting [9]) were 11% and 9%, respectively.

For the molecule `CC(O)(Cn1c2c(c3cc(Cl)ccc31)CNCC2)c1ccncc1` (stereo not drawn) [II-62, 1-(8-chloro-1,2,3,4-tetrahydro-pyrido[4,3-b]indol-5-yl)-2-pyridin-4-yl-propan-2-ol], the inhibition at 0.03 µM in test [1] (setting [7]) stood at 37%. The inhibition at 0.1 µM worked out at 14% in test [2] (setting [8]) and 5% in test [3] (setting [9]).

Take `C=CCN1CCc2c(c3cc(C)ccc3n2CC(O)c2ccncc2)C1` (stereo not drawn) [II-63, 2-(2-allyl-1,2,3,4-tetrahydro-8-methylpyrido[4,3-b]indol-5-yl)-1-(pyridin-4-yl)ethanol]: the inhibition at 0.03 µM in test [1] (setting [7]) was 90%. Also, the inhibition at 0.1 µM in test [2] (setting [8]) amounted to 55%; in test [3] (setting [9]), 39%.

On to `Cc1ccc2c(c1)c1c(n2CC(O)c2ccncc2)CCN(CCO)C1` (stereo not drawn) [II-64, 2-[2-(2-hydroxy-ethyl)-8-methyl-1,2,3,4-tetrahydro-pyrido[4,3-b]indol-5-yl]-1-pyridin-4-yl-ethanol], for which the inhibition at 0.03 µM in test [1] (setting [7]) was 54%. In addition, the results for the inhibition at 0.1 µM in test [2] (setting [8]) and in test [3] (setting [9]) were 23% and -3%, respectively.
